# In ChEMBL document CHEMBL1125851, “Trans-esterification reactions yield novel masked phosphate derivatives of the anti-cancer agent araC” (Bioorg Med Chem Lett, 1991):
# Test system: Nucleic Acid
# Test: The compound was tested for its ability to inhibit the incorporation of tritiated thymidine into mammalian epithelial cells (DNA) at 30 uM dose
# Type: cell-based
# Conditions: Epithelial cell
row,SMILES,inhibition
1,CCCNP(=O)(OC[C@H]1OC(n2ccc(N)nc2=O)[C@@H](O)[C@@H]1O)OCC(Cl)(Cl)Cl (stereo partly drawn),45%
2,CCCOP(=O)(OC[C@H]1OC(n2ccc(N)nc2=O)[C@@H](O)[C@@H]1O)OCC(Cl)(Cl)Cl (stereo partly drawn),40%
3,Nc1ccn(C2O[C@H](COP(=O)(OCC(Cl)(Cl)Cl)OCC(Cl)(Cl)Cl)[C@@H](O)[C@@H]2O)c(=O)n1 (stereo partly drawn),91%
4,"CCOP(=O)(OC[C@H]1OC(n2ccc(N)nc2=O)[C@@H](O)[C@@H]1O)OCC(Cl)(Cl)Cl (single isomer, unassigned; form 2)",30%
5,"CCOP(=O)(OC[C@H]1OC(n2ccc(N)nc2=O)[C@@H](O)[C@@H]1O)OCC(Cl)(Cl)Cl (single isomer, unassigned; form 1)",31%
6,CCCCNP(=O)(OC[C@H]1OC(n2ccc(N)nc2=O)[C@@H](O)[C@@H]1O)OCC(Cl)(Cl)Cl (stereo partly drawn),48%
7,COP(=O)(OC[C@H]1OC(n2ccc(N)nc2=O)[C@@H](O)[C@@H]1O)OCC(Cl)(Cl)Cl (stereo partly drawn),22%
8,Nc1ccn([C@@H]2O[C@H](CO)[C@@H](O)[C@@H]2O)c(=O)n1,83%
